According to patent US10420770B2, “Compositions and methods for treating dementia” (EIP Pharma, LLC, priority 2016, dated 2019):

What was measured:
Assay type in all cases: in vivo, human
[1] = Safety and tolerability, 6-week Phase IIa study (Example 2); conditions: 6 weeks
Procedure: Investigators and patients were blinded to the dosage strength. The first 3 patients were randomly assigned to receive either 40 or 125 mg twice daily, with dosing level blinded. The remaining patients (up to 7 patients) received 40 mg twice daily on an open-label basis. […] Patients were instructed to eat a meal approximately 30 minutes before dosing with VX 745 with each dose taken approximately 12 hours (+/−3 hours) apart at the same times each day throughout the study.

[2] = Population pharmacokinetic analyses (Example 1 and Example 2 combined); conditions: population PK
Procedure: Sixteen subjects completed the full 12 weeks of treatment and all were included in safety analyses. […] In the PK analysis, due to the sparse sampling collection design, the time period from 0 to 24 hours post-dose was divided into 4 blocks in order to show the distribution of concentrations over time. […] Average blood concentration of about 8 ng/mL at the 40 mg dose level was observed. This is higher than the 5 ng/mL.

[3] = system: patients with mild cognitive impairment (MCI) due to Alzheimer's disease (AD) or with mild AD; assay: Hopkins Verbal Learning Test-Revised (HVLT-R), 6-week study (Example 2); conditions: for HVLT-R Delayed Recall change from averaged baseline, Maximum / HVLT-R Delayed Recall change from averaged baseline, Median / HVLT-R Delayed Recall change from averaged baseline, Minimum / HVLT-R RDI change from averaged baseline, Maximum / HVLT-R RDI change from averaged baseline, Median / HVLT-R RDI change from averaged baseline, Minimum / HVLT-R Retention change from averaged baseline, Maximum / HVLT-R Retention change from averaged baseline, Median / HVLT-R Retention change from averaged baseline, Minimum / HVLT-R Total Recall change from averaged baseline, Maximum / HVLT-R Total Recall change from averaged baseline, Median / HVLT-R Total Recall change from averaged baseline, Minimum: n=8; for HVLT-R Delayed Recall change from averaged baseline, Arithmetic Mean / HVLT-R Retention change from averaged baseline, Arithmetic Mean / HVLT-R Total Recall change from averaged baseline, Arithmetic Mean: overall pharmacodynamic population n=8
Procedure: The Hopkins Verbal Learning Test-Revised (HVLT-R) was utilized to assess episodic memory. In this test, 12 specific words from a list were provided verbally, and the subject was asked to recall as many words as possible. Two scores are calculated: (i) Total (Immediate) Recall Score (range: 0-36): combined score of three consecutive trials immediately following provision of words and (ii) Delayed Recall Score (range: 0-12): Number of words recalled when subject was asked 20 to 25 minutes after initial trials to recall as many of the words originally provided. A strength of the HVLT-R is that six different validated version exist that each incorporate a different set of words. Due to the use of these different versions during the course of a clinical study, there is essentially no practice effect with repeated administration (Benedict, R. H. B. et al, “Hopkins Verbal Learning Test-Revised: Normative Data and Analysis of Inter-Form and Test-Retest Reliability” The Clinical Neuropsychologist, 12(1): 43-55 (1998)).

[4] = system: neurofilament light chain (NFL); assay: CSF neurofilament light chain (NFL), 6-week study; conditions: baseline to day 40
Procedure: Phospho-tau and NFL proteins from CSF sampling were evaluated as markers of the effects of inflammation on neurodegeneration and axonopathy, respectively.

[5] = system: amyloid-beta peptides (Aβ 38/40/42); assay: CSF amyloid-beta peptides, 6-week study; conditions: baseline to Day 41; p=0.01 to p=0.047
Procedure: Effects on CSF levels of Aβ peptides were evaluated as measures of the amyloidenic process, which is activated with aging and more so in patients with Alzheimer's disease.
Target engagement was assessed through the evaluation of the effect of drug treatment on CSF biomarkers. CSF was collected at 6 time-points over 24 hours at baseline (the 24 hours prior to first dose) and again at 6 time-points over 24 hours near the end of treatment on Day 40. The samples were evaluated by the Mesoscale Discovery ELISA platform for multiple cytokines ((IFN-γ, IL-1β, IL-2, IL-4, IL-5, IL-8, IL-12 protein 70, IL-13, TNFα, and CSF) and for amyloid-beta peptides (Aβ 38/40/42).

[6] = system: brain-derived neurotrophic factor (BDNF); assay: Plasma BDNF levels by Somascan, 12-week study; conditions: baseline vs after 84 days; n=10 subjects
Procedure: FIG. 15 depicts plasma brain-derived neurotrophic, factor (BDNF) levels at baseline and after 84 days (n=10 subjects). BDNF levels were measured by Somascan®.

[7] = Example 2 study (N = 8), HLVT-R

## O=c1ncn2nc(Sc3ccc(F)cc3F)ccc2c1-c1c(Cl)cccc1Cl [VX-745]
[1]; 40 mg or 125 mg twice daily
  tolerability: well-tolerated
[1]
  safety concerns: No safety concerns were identified
  safety laboratory and 12-lead ECG parameters: no treatment-related or clinically relevant trends
[1]; 9 subjects
  Most common adverse events: mild dizziness, headache, and somnolence reported in 2 subjects each
[2]; 40 mg dose level
  median 12-hour exposure: 78 ng·h/mL
[2]; 125 mg dose level
  median 12-hour exposure: 116 ng·h/mL
[2]; human, plasma, oral, Examples 1 and 2 combined, read-out: terminal half-life (converted)
  half-life: ~16 h
[3]; Day 14
  HVLT-R Delayed Recall change from averaged baseline, Maximum: 4
  HVLT-R Delayed Recall change from averaged baseline, Median: 1.0
  HVLT-R Delayed Recall change from averaged baseline, Minimum: −3
  HVLT-R RDI change from averaged baseline, Maximum: 5
  HVLT-R RDI change from averaged baseline, Median: −0.3
  HVLT-R RDI change from averaged baseline, Minimum: −3
  HVLT-R Retention change from averaged baseline, Maximum: 35%
  HVLT-R Retention change from averaged baseline, Median: 6.3%
  HVLT-R Retention change from averaged baseline, Minimum: −37%
  HVLT-R Total Recall change from averaged baseline, Maximum: 6
  HVLT-R Total Recall change from averaged baseline, Median: 0.0
  HVLT-R Total Recall change from averaged baseline, Minimum: −2
  HVLT-R Delayed Recall change from averaged baseline, Arithmetic Mean: 0.8
  HVLT-R Retention change from averaged baseline, Arithmetic Mean: 3.8%
  HVLT-R Total Recall change from averaged baseline, Arithmetic Mean: 0.6
[3]; Day 40
  HVLT-R Delayed Recall change from averaged baseline, Maximum: 7
  HVLT-R Delayed Recall change from averaged baseline, Median: 1.0
  HVLT-R Delayed Recall change from averaged baseline, Minimum: 0
  HVLT-R RDI change from averaged baseline, Maximum: 6
  HVLT-R RDI change from averaged baseline, Median: 1.3
  HVLT-R RDI change from averaged baseline, Minimum: −11
  HVLT-R Retention change from averaged baseline, Maximum: 71%
  HVLT-R Retention change from averaged baseline, Median: 6.5%
  HVLT-R Retention change from averaged baseline, Minimum: −14%
  HVLT-R Total Recall change from averaged baseline, Maximum: 10
  HVLT-R Total Recall change from averaged baseline, Median: 4.5
  HVLT-R Total Recall change from averaged baseline, Minimum: −3
  HVLT-R Delayed Recall change from averaged baseline, Arithmetic Mean: 2.1
  HVLT-R Retention change from averaged baseline, Arithmetic Mean: 15.3%
  HVLT-R Total Recall change from averaged baseline, Arithmetic Mean: 3.5
[3]; [7]
  Calculated within-subject treatment effect size (Cohen's d), Delayed Recall: .86
  Calculated within-subject treatment effect size (Cohen's d), Immediate Recall: .69
[3]; during 6-week treatment
  Median increase in HVLT-R Total Recall score: 4.5 (range: −2.5 to +9.5)
[3]; week 6, Baseline 19.1 (±1.5), p=0.015
  HVLT-R Mean Total Recall score: 22.6 (±2.1)
[3]; week 6, baseline 5.4 (±0.6), P=0.028
  HVLT-R Delayed Recall score: 7.5 (±1.1)
[4]
  CSF levels of neurofilament light chain (NFL): no change
[5]
  correlation between plasma drug concentration and increases in CSF Aβ 38/40/42 levels: statistically significant correlation
[6]
  plasma BDNF levels: increases plasma BDNF levels
